# Target: Gag-Pol polyprotein (Human immunodeficiency virus type 1 group M subtype B (isolate HXB2)) (UniProt P04585)
# Assay: concentration-response of HIV-1 RNase H blockers – biochemical, probe assessment, dose response (AID 652)
# Conditions: HIV-1 RT RNase H enzymatic assay
row,SMILES,IC50
1,CSc1ccc(C2C(C#N)=C(N)Oc3c2ccc(=O)c2c(C)oc(C)c32)cc1 (stereo unspecified),5.81 µM
2,S=C(Nc1ccccn1)c1ccccn1,4.96 µM
3,CN(C)c1ccc(N=Cc2c(O)n(CCC3=CCCCC3)c(=O)[nH]c2=O)cc1,3.8 µM
4,C/C=C/CSc1nc2c(c(=O)[nH]c(=O)n2C)n1Cc1ccc(C)cc1,11.2 µM
5,CCN(CC)C1=CC(=O)OC12CCCCC2,42.8 µM
6,Cc1ccccc1N1C(=O)c2sc3nc4c(c(=O)n3c2C1=O)CCC4,2.37 µM
7,Fc1ccccc1CSc1nc2ncccc2[nH]1,9.72 µM
8,COc1ccc(C2C(C#N)=C(N)N3C(=C2C#N)Sc2ccccc23)cc1 (stereo unspecified),3.35 µM
9,O=S(=O)(/N=S1/CC=CCN1S(=O)(=O)c1ccccc1)c1ccccc1 (stereo unspecified),4.33 µM
10,COc1ccc(C(=S)N(C)C)cc1OC,3.61 µM
11,O=C(COc1ccc(Cl)cc1)Nc1nnc(-c2ccc3c(c2)CCCC3)o1,4.49 µM
12,CCOc1cc(C2C(C#N)=C(N)SC(N)=C2C#N)ccc1OCCN1CCOCC1,31.5 µM

# Same assay, conditions: HIV-1 RT RNase H enzymatic assay, inhibition, at 50 µM, stronger effect = higher value
row,SMILES,inhibition
1,c1ccc(Cc2nn3c(COc4ccccc4)nnc3s2)cc1,86.8%
2,CCCCC[C@H](O)/C=C/[C@H]1C=CC(=O)[C@@H]1C/C=C\CCCC(=O)O,101%
3,CSc1ccc(C2C(C#N)=C(N)Oc3c2ccc(=O)c2c(C)oc(C)c32)cc1 (stereo unspecified),77.4%
4,Cc1nc(C)c(C(=O)Nc2nc3c(C)cccc3s2)o1,100%
5,COc1ccc(N2CSC3=C(C#N)C(c4ccc(OC)c(OC)c4)CC(=O)N3C2)c(OC)c1 (stereo unspecified),79.7%
6,O=c1c2ccccc2sn1-c1cc(S(=O)(=O)N2CCOCC2)ccc1N1CCOCC1,84.4%
7,S=C(Nc1ccccn1)c1ccccn1,85.8%
8,CCOC(=O)CSc1nc2cc(C(=O)NCc3ccco3)ccc2c(=O)n1C1CCCCC1,89%
9,O=C1c2sc3nc4ccccc4n3c2C(=O)N1c1ccccc1Cl,98.9%
10,Cc1cccc(Nc2n[nH]c(=S)s2)c1C,96.9%
11,CN(C)c1ccc(N=Cc2c(O)n(CCC3=CCCCC3)c(=O)[nH]c2=O)cc1,80.1%
12,c1cncc(-c2nn3c(Cn4cnc5ccccc54)nnc3s2)c1,85.4%
13,COC(=O)c1ccccc1NC(=O)c1ccc2c(c1)C(=O)N(Cc1ccco1)C2=O,93.3%
14,CC(=O)c1cccc(NC(=O)c2cc(-c3ccc(C)cc3)on2)c1,95.8%
15,CCCCCC#CCC#CCC#CCC#CCCCC(=O)O,98%
16,C/C=C/CSc1nc2c(c(=O)[nH]c(=O)n2C)n1Cc1ccc(C)cc1,101%
17,Cn1ccnc1P(=S)(c1nccn1C)N1CCOCC1,60%

row,SMILES,inhibition
1,CCCCC(CC)Cn1c2nc3ccccc3nc2c2c(=N)oc(C)nc21 (stereo unspecified),95.5%
2,O=C(CSc1nnnn1-c1ccccc1)Nc1nsc(-c2ccc(Cl)cc2)n1,48.8%
3,CCCc1nc2ccccc2c(=O)n1/N=C/c1ccc(O)c(O)c1,97.3%
4,c1ccc(-n2ncc3c2ncn2nc(-c4ccco4)nc32)cc1,89.8%
5,CCOC(=O)c1sc(NC(=O)CSc2n[nH]c(-c3ccccc3)n2)c(C#N)c1C,101%
6,CCN(CC)C1=CC(=O)OC12CCCCC2,65.8%
7,COCCSc1ccccc1C(=O)Nc1cc(C)on1,65.1%
8,CCOc1cc(C2c3c(oc4cc(C)c(Cl)cc4c3=O)C(=O)N2Cc2ccco2)ccc1O (stereo unspecified),76.5%
9,Cc1cc(C(=O)CSc2nnc(-c3ccc(OC(F)F)cc3)o2)c(C)n1Cc1cccs1,74.6%
10,Cc1cccc(N2CSC3=C(C#N)C(c4ccc(C)o4)CC(=O)N3C2)c1 (stereo unspecified),100%
11,COc1cccc(-c2nnc(NC(=O)c3ccc(S(=O)(=O)N(CC(C)C)CC(C)C)cc3)o2)c1,84.4%
12,Cc1ccccc1N1C(=O)c2sc3nc4c(c(=O)n3c2C1=O)CCC4,98.7%
13,Cc1cccc(N2CCN(C(=O)Cn3sc4nc(C)cc(C)c4c3=O)CC2C)c1 (stereo unspecified),86%
14,CN1CCN(C(=O)c2sc(=S)n(-c3ccccc3)c2N)CC1,73.1%
15,Cc1cccc(OCC(=O)Nc2cccc(-c3nnc(-c4ccccc4)o3)c2)c1C,88.1%
16,COc1cc(-c2nnc3sc(Cc4ccc(Cl)cc4)nn23)cc(OC)c1OC,96.4%
17,O=C(NC1CCCCC1)c1sc(=S)n2c1[nH]c(=O)c1ccccc12,96.5%

# From PubChem BioAssay AID652 (University of Pittsburgh Molecular Library Screening Center, 2007)
